Results: patent US20250270330A1, “TREATMENT OF HEADACHE DISORDERS WITH NK3 MODULATORS” (Kallyope, Inc., priority 2022, published 2025)

Assays:
[1] = system: rats with inflammatory soup-sensitized trigeminal ganglia; test: In vivo migraine headache model: von Frey periorbital threshold after GTN challenge; set-up: species or system Sprague-Dawley rats
Protocol: Surgeries were performed as previously described in Oshinsky, M. L. & Gomonchareonsiri, S., Episodic dural stimulation in awake rats: a model for recurrent headache, 47 HEADACHE 1026-1036 (2007). Adult male Sprague-Dawley rats were habituated towards handling for 1-2 weeks before undergoing dural cannulation surgery under isoflurane anesthesia. Attention was given not to disturb the dura. A custom flange guide cannula (22GA, Plastics One) was inserted. The cannula was fixed to the bone with small screws and dental cement.
After 1-2 weeks of recovery from surgery, animals received supradural infusions of an inflammatory soup comprising 2 mM histamine, bradykinin, serotonin, 0.2 mM prostaglandin E2 under brief isoflurane anesthesia (1.5-3%) for 5 consecutive days (1/day) (i.e., the 5-day sensitization period).
The design was within-subjects with the same animals receiving multiple treatments in a crossover fashion with at least one week washout between each treatment. Evoked sensory testing for mechanical allodynia was done by von Frey periorbital threshold testing. Sensory testing occurred during the day using von Frey filaments with reproducible calibrated buckling forces varying from 0.4-10 g and utilizing the up-and-down method. See Dixon, W. J., The Up-and-Down Method for Small Samples, 60 J. AM. STAT. ASSOC., 967-978 (1965); Chaplan, S. R., Bach, F. W., Pogrel, J. W., Chung, J. M. & Yaksh, T. L., Quantitative assessment of tactile allodynia in the rat paw, 53 J. NEUROSCI. METHODS 55-63 (1994) (hereinafter “Chaplan 1994”). Based on the response pattern and the force of the final filament, the periorbital threshold (g) was calculated according to the prior art method set forth, e.g., in Chaplan 1994 and Bonin, R. P., Bories, C. & De Koninck, Y., A simplified up-down method (SUDO) for measuring mechanical nociception in rodents using von Frey filaments, 10 MOL. PAIN 26 (2014). A blinded investigator tested periorbital sensitivity before drug administration, and 45 min and 1.5 h after drug administration. Studies were conducted with n=13-22.

luteinizing hormone (LH) = test: Luteinizing hormone (LH) inhibition studies, serum LH by ELISA; type: in vivo, castrated male Sprague-Dawley rats; details: for reduction in LH levels: 100 mg/kg
Protocol: Studies measuring LH were performed on castrated male Sprague-Dawley rats. Briefly, animals were castrated through a midline scrotal incision using Zoletil® 50 as an anesthetic. Surgeries were performed at least 15 days before compound testing.
Serum was collected at baseline, then every 15 minutes starting from 30 minutes after PO […] dosing with vehicle, fezolinetant (30 mg/kg), or SB 235375 (30 and 100 mg/kg). Blood was collected from the jugular vein, transferred into 1.5-mL centrifuge tubes, and centrifuged at 8000 g for 15 minutes to separate the serum. Serum LH levels were determined using a rat luteinizing hormone ELISA kit (Colorimetric, Novus). The assays were performed following the manufacturer's protocol. Group sizes were from n=10 for the vehicle and SB 235375 groups and n=4 for fezolinetant.

CC[C@H](NC(=O)c1c(OCC(=O)O)c(-c2ccccc2)nc2ccccc12)c1ccccc1 [SB 235375]
pain (periorbital) threshold ([1]; GTN + 30 and 100 mg/kg PO, 45, 90 minutes, vs GTN and vehicle): higher pain thresholds
mean LH value (luteinizing hormone (LH); 30 mg/kg PO, 0 min (baseline)): 31.6 ng/mL
mean LH value (luteinizing hormone (LH); 30 mg/kg PO, 30 min): 33.4 ng/mL
mean LH value (luteinizing hormone (LH); 30 mg/kg PO, 90 min): 35.8 ng/mL
mean LH value (luteinizing hormone (LH); 30 mg/kg PO, 150 min): 30.4 ng/mL
increase in LH levels (luteinizing hormone (LH); 30 mg/kg, 30 minutes): ~+4%
increase in LH levels (luteinizing hormone (LH); 30 mg/kg, 90 minutes): ~+13%
reduction in LH levels compared to vehicle (luteinizing hormone (LH); 30 mg/kg, 150 minutes): roughly 4%
mean LH value (luteinizing hormone (LH); 100 mg/kg PO, 0 min (baseline)): 34.7 ng/mL
mean LH value (luteinizing hormone (LH); 100 mg/kg PO, 30 min): 25.7 ng/mL
mean LH value (luteinizing hormone (LH); 100 mg/kg PO, 90 min): 29.7 ng/mL
mean LH value (luteinizing hormone (LH); 100 mg/kg PO, 150 min): 31.1 ng/mL
reduction in LH levels (luteinizing hormone (LH); 30 minutes): roughly 26%
reduction in LH levels (luteinizing hormone (LH); 90 minutes): ~14%
reduction in LH levels (luteinizing hormone (LH); 150 minutes): ~10%
LH levels compared to the vehicle-treated group (luteinizing hormone (LH); 30 and 100 mg/kg): did not exhibit a significant difference

Cc1nsc(-c2nnc3n2CCN(C(=O)c2ccc(F)cc2)[C@@H]3C)n1 [fezolinetant]
withdrawal (periorbital) threshold ([1]; GTN + 30 mg/kg PO, 90 min timepoint, vs saline+vehicle or GTN+vehicle): significantly higher
withdrawal (periorbital) threshold ([1]; GTN + 100 mg/kg PO, both timepoints (45 min, 1.5 h), vs each control group): significantly higher
mean LH value (luteinizing hormone (LH); 30 mg/kg PO, 0 min (baseline)): 37.3 ng/mL
mean LH value (luteinizing hormone (LH); 30 mg/kg PO, 30 min): 15.2 ng/mL
mean LH value (luteinizing hormone (LH); 30 mg/kg PO, 90 min): 6.1 ng/mL
mean LH value (luteinizing hormone (LH); 30 mg/kg PO, 150 min): 5.5 ng/mL
reduction in LH levels compared to vehicle (luteinizing hormone (LH); 30 mg/kg, 30 minutes): approximately 60%
reduction in LH levels compared to vehicle (luteinizing hormone (LH); 30 mg/kg, 90 minutes): roughly 85%
reduction in LH levels compared to vehicle (luteinizing hormone (LH); 30 mg/kg, 150 minutes): roughly 85%
LH serum concentrations (luteinizing hormone (LH); 30 mg/kg, all measured time points (30, 90, and 150 min)): significantly reduced
